Measured values published in patent US5126246A, “Reagent for analysis of triglycerides and analysis using the same” (priority 1988, dated 1992).
Values joined by “and” are separate entries in the source; they are usually repeats but may differ in a detail not shown here. Equal entries are not always repeated. Values belong to the compound of their own block, whether it stands above or below them.

Columns and labels:
[1] = test system: monoglyceride lipase; experiment: Effects of surface active agents and metal ions on the monoglyceride lipase; format: biochemical, Bacillus stearothermophilus H-165; settings: for Effect of added reagent on monoglyceride lipase activity: Table 2; for Activity of lipase (%): no reagent 100
Method: The mon[…] is not affected by the addition of divalent metal ions such as Ca^++ and Mg^++.
MEASUREMENT METHOD OF ENZYMATIC ACTIVITY OF MON[…]
(§1) To 0.4 ml of a solution of the above composition, is added 50 μl of 10 mM monolaurin (0.5 % aqueous solution of "Triton X-100"). The resultant mixture is pre-incubated at 37° C. for 2-3 minutes and 50 μl of an enzyme solution is added to initiate a reaction. Exactly 10 minutes later, 2.5 ml of 5 % SDS (sodium dodecyl sulfate) is added to terminate the reaction. The absorbance is measured at 550 nm. Regarding the enzymatic activity, the activity capable of producing 1 μmole of glycerol per minute is defined at 1 Unit (1 U). The following equation is used for calculation of enzymatic activity (potency): [formula] wherein ΔA 550: Absorbance at the wavelength of 550 nm

[2] = test system: Pancreatic lipase and the monoglyceride lipase; experiment: Glycerol liberated from α,β-diglyceride substrates by pancreatic lipase plus monoglyceride lipase; format: biochemical; settings: pancreatic lipase and monoglyceride lipase applied
From the text: (2) Substrate specificity of the monoglyceride lipase upon use of α,β-diglyceride as a substrate:
(§2) (i) Pancreatic lipase and the monoglyceride lipase are applied to the below-described α,β-diglyceride substrates. Their α-positions are hydrolyzed by the pancreatic lipase and then the resulting β-monoglycerides are allowed to react with the monoglyceride lipase, in order to analyze glycerol thus liberated. Glycerol is detected with respect to the substrates, namely,α-oleyl-β-palmitoyldiglyceride, α-palmitoly-β-oleolyldiglyceride and α,β-dilinoleylglyceride. However, glycerol is not detected when only pancreatic lipase is used.

[3] = target: T1, pancreatic lipase (Sus scrofa, UniProt P00591); experiment: Glycerol liberated from α,β-diglyceride substrates by pancreatic lipase only; format: biochemical; settings: only pancreatic lipase used
T1 sequence (P00591 1-450): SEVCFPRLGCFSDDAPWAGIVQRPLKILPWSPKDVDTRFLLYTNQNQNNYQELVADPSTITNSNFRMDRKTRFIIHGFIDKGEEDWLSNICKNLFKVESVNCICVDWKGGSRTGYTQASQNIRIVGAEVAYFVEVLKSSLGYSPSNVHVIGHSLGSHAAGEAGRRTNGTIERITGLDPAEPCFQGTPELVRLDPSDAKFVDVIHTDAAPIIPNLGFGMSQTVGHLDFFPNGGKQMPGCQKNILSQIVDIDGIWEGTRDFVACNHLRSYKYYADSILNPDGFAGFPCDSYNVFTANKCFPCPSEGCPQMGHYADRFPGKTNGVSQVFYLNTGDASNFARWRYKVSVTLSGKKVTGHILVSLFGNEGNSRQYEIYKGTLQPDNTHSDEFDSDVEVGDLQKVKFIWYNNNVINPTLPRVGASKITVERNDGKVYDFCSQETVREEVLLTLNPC
From the text: as §2

[4] = test system: monoglyceride lipase; experiment: Substrate specificity of the monoglyceride lipase (enzymatic activity assay, glycerol formed); format: biochemical, Bacillus stearothermophilus H-165; settings: for Activity of lipase (%): relative activity of monoglyceride lipase on the substrate, Monolaurin 100.0; for Glycerol hydrolyzed from substrate in the presence of the monoglyceride lipase: diglyceride or triglyceride used as substrate
Method: (8) Substrate specificity: The substrate specificity of the monoglyceride lipase in this invention is investigated under conditions where the below-described assay method of enzymatic activity for the monoglyceride lipase is conducted.
MEASUREMENT METHOD OF ENZYMATIC ACTIVITY OF MONOGLYCERIDE LIPASE
as §1

[5] = reagent concentration 1 mM, 10 min

Structure (SMILES): [Ca+2].[Cl-].[Cl-] [CaCl2, calcium chloride]
Effect of added reagent on monoglyceride lipase activity [1]: not affected | Activity of lipase (%) [1, 5]: 100.0%

Glycerol liberated [2]: detected | Glycerol liberated [3]: not detected
Structure (SMILES): CCCCCCCC/C=C\CCCCCCCC(=O)OC(CO)COC(=O)CCCCCCCCCCCCCCC (stereo not drawn) [α-palmitoly-β-oleolyldiglyceride]

Activity of lipase (%) [4]: 47.1%
Structure (SMILES): CCCC(=O)OCC(O)CO (stereo not drawn) [Monobutyrin]

Glycerol hydrolyzed from substrate in the presence of the monoglyceride lipase [4]: no glycerol hydrolyzed is detected | Activity of lipase (%) [4]: 0%
Structure (SMILES): CCCCC/C=C\C/C=C\CCCCCCCC(=O)OCC(O)COC(=O)CCCCCCC/C=C\C/C=C\CCCCC [1,3-dilinolein]

Activity of lipase (%) [4]: 0%
Structure (SMILES): CCCC(=O)OCC(COC(=O)CCC)OC(=O)CCC [Tributyrin]

Activity of lipase (%) [4]: 85.7%
Structure (SMILES): CCCCCCCCCCCCCC(=O)OCC(O)CO (stereo not drawn) [Monomyristin]

Activity of lipase (%) [4]: 89.1%
Structure (SMILES): CCCCCCCCCC(=O)OCC(O)CO (stereo not drawn) [Monocaprin]

Structure (SMILES): CCCCCCCCCCCC(=O)OCC(O)CO (stereo not drawn) [Monolaurin]
Activity of lipase (%) [4]: 100.0%

Structure (SMILES): C[C@H](CCC(=O)O)[C@H]1CC[C@H]2[C@@H]3[C@H](O)C[C@@H]4C[C@H](O)CC[C@]4(C)[C@H]3C[C@H](O)[C@]12C [Cholic acid]
Effect of added reagent on monoglyceride lipase activity [1]: inhibition of the activity is observed in the high concentration range | Activity of lipase (%) [1, 5]: 100.0% | Activity of lipase (%) ([1]; reagent concentration 10 mM): 92.6%

Structure (SMILES): CCCCCCCCCCCCCCCCCC(=O)OCC(O)CO (stereo not drawn) [Monostearin]
Activity of lipase (%) [4]: 27.6%

Activity of lipase (%) [4]: 0%
Structure (SMILES): CC(=O)OCC(COC(C)=O)OC(C)=O [Triacetin]

Glycerol liberated [2]: detected | Glycerol liberated [3]: not detected
Structure (SMILES): CCCCC/C=C\C/C=C\CCCCCCCC(=O)OCC(CO)OC(=O)CCCCCCC/C=C\C/C=C\CCCCC (stereo not drawn) [α,β-dilinoleylglyceride]

Structure (SMILES): CCCCCCCC/C=C\CCCCCCCC(=O)OCC(COC(=O)CCCCCCC/C=C\CCCCCCCC)OC(=O)CCCCCCC/C=C\CCCCCCCC [Triolein]
Glycerol hydrolyzed from substrate in the presence of the monoglyceride lipase [4]: no glycerol hydrolyzed is detected | Activity of lipase (%) [4]: 0%

Activity of lipase (%) [1, 5]: 86.0%
Structure (SMILES): O=C(O)CN(CCN(CC(=O)O)CC(=O)O)CC(=O)O [EDTA]

Structure (SMILES): CCCCCCCC/C=C\CCCCCCCC(=O)OCC(O)CO (stereo not drawn) [Monoolein]
Activity of lipase (%) [4]: 56.3% and 75.6%

Glycerol liberated [2]: detected | Glycerol liberated [3]: not detected
Structure (SMILES): CCCCCCCC/C=C\CCCCCCCC(=O)OCC(CO)OC(=O)CCCCCCCCCCCCCCC (stereo not drawn) [α-oleyl-β-palmitoyldiglyceride]

Activity of lipase (%) [4]: 10.1%
Structure (SMILES): CC(=O)OCC(O)CO (stereo not drawn) [Monoacetin]

Structure (SMILES): [Cl-].[Cl-].[Mg+2] [MgCl2, magnesium chloride]
Effect of added reagent on monoglyceride lipase activity [1]: not affected | Activity of lipase (%) [1, 5]: 100.0%

Glycerol hydrolyzed from substrate in the presence of the monoglyceride lipase [4]: no glycerol hydrolyzed is detected | Activity of lipase (%) [4]: 0%
Structure (SMILES): CCCCC/C=C\C/C=C\CCCCCCCC(=O)OCC(CO)OC(=O)CCCCCCC/C=C\C/C=C\CCCCC (stereo not drawn) [1,2-dilinolein]

Activity of lipase (%) [4]: 39.5%
Structure (SMILES): CCCCCCCCCCCCCCCC(=O)OCC(O)CO (stereo not drawn) [Monopalmitin]
